Test results taken from the supplement of paper PMC10307832.

Legend:
Experiment in all cases: relative viability (nuclei count vs DMSO), 5 days (fraction); higher = more cells survive
A-427 = system: A-427
Summary of the method: (§1)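 Lung cancer cell lines were pin-tool dosed in 1536-well plates on the day after seeding, with either a lone drug or a fixed anchor-drug dose plus five library-drug doses (not always all listed) in √10 steps. Nuclei were counted on 4× images after 5 days. Relative viability is the ratio of treated-well to vehicle-well nuclei counts, with each value a median of duplicate plates.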

CAL-12T = system: CAL-12T
Summary of the method: as §1

COR-L 105 = system: COR-L 105
Summary of the method: as §1

EMC-BAC-2 = system: EMC-BAC-2
Summary of the method: as §1

HARA = system: HARA
Summary of the method: as §1

HCC-366 = system: HCC-366
Summary of the method: as §1

HCC-827 = system: HCC-827
Summary of the method: as §1

HOP-62 = system: HOP-62
Summary of the method: as §1

LCLC-103H = system: LCLC-103H
Summary of the method: as §1

NCI-H1355 = system: NCI-H1355
Summary of the method: as §1

NCI-H1395 = system: NCI-H1395
Summary of the method: as §1

NCI-H1437 = system: NCI-H1437
Summary of the method: as §1

NCI-H1755 = system: NCI-H1755
Summary of the method: as §1

NCI-H1792 = system: NCI-H1792
Summary of the method: as §1

NCI-H1915 = system: NCI-H1915
Summary of the method: as §1

NCI-H1975 = system: NCI-H1975
Summary of the method: as §1

NCI-H2009 = system: NCI-H2009
Summary of the method: as §1

NCI-H2228 = system: NCI-H2228
Summary of the method: as §1

NCI-H23 = system: NCI-H23
Summary of the method: as §1

NCI-H460 = system: NCI-H460
Summary of the method: as §1

NCI-H727 = system: NCI-H727
Summary of the method: as §1

SK-LU-1 = system: SK-LU-1
Summary of the method: as §1

SW 1573 = system: SW 1573
Summary of the method: as §1

Which results are given for Oc1nc(-c2ccc(C(F)(F)F)cc2)nc2c1CSCC2 [XAV939] + N=C(N)NC(=N)NCCc1ccccc1 [Phenformin] (partner 250 µM)?
relative viability (A-427; first compound 0.08 µM): 0.365; relative viability (A-427; first compound 0.253 µM): 0.328; relative viability (A-427; first compound 0.8 µM): 0.314; relative viability (A-427; first compound 2.53 µM): 0.294; relative viability (CAL-12T; first compound 0.08 µM): 0.592; relative viability (CAL-12T; first compound 0.253 µM): 0.507; relative viability (CAL-12T; first compound 0.8 µM): 0.46; relative viability (CAL-12T; first compound 2.53 µM): 0.417; relative viability (COR-L 105; first compound 0.08 µM): 0.51; relative viability (COR-L 105; first compound 0.253 µM): 0.492; relative viability (COR-L 105; first compound 0.8 µM): 0.434; relative viability (COR-L 105; first compound 2.53 µM): 0.381; relative viability (EMC-BAC-2; first compound 0.08 µM): 0.551; relative viability (EMC-BAC-2; first compound 0.253 µM): 0.459; relative viability (EMC-BAC-2; first compound 0.8 µM): 0.424; relative viability (EMC-BAC-2; first compound 2.53 µM): 0.288; relative viability (HARA; first compound 0.08 µM): 0.425; relative viability (HARA; first compound 0.253 µM): 0.448; relative viability (HARA; first compound 0.8 µM): 0.452; relative viability (HARA; first compound 2.53 µM): 0.432; relative viability (HCC-366; first compound 0.08 µM): 0.638; relative viability (HCC-366; first compound 0.253 µM): 0.596; relative viability (HCC-366; first compound 0.8 µM): 0.65; relative viability (HCC-366; first compound 2.53 µM): 0.634; relative viability (HCC-827; first compound 0.08 µM): 0.364; relative viability (HCC-827; first compound 0.253 µM): 0.421; relative viability (HCC-827; first compound 0.8 µM): 0.452; relative viability (HCC-827; first compound 2.53 µM): 0.394; relative viability (HOP-62; first compound 0.08 µM): 0.8; relative viability (HOP-62; first compound 0.253 µM): 0.623; relative viability (HOP-62; first compound 0.8 µM): 0.646; relative viability (HOP-62; first compound 2.53 µM): 0.593; relative viability (LCLC-103H; first compound 0.08 µM): 0.369; relative viability (LCLC-103H; first compound 0.253 µM): 0.29; relative viability (LCLC-103H; first compound 0.8 µM): 0.304; relative viability (LCLC-103H; first compound 2.53 µM): 0.315; relative viability (NCI-H1355; first compound 0.08 µM): 0.455; relative viability (NCI-H1355; first compound 0.253 µM): 0.428; relative viability (NCI-H1355; first compound 0.8 µM): 0.43; relative viability (NCI-H1355; first compound 2.53 µM): 0.435; relative viability (NCI-H1395; first compound 0.08 µM): 0.429; relative viability (NCI-H1395; first compound 0.253 µM): 0.443; relative viability (NCI-H1395; first compound 0.8 µM): 0.438; relative viability (NCI-H1395; first compound 2.53 µM): 0.462; relative viability (NCI-H1437; first compound 0.08 µM): 0.343; relative viability (NCI-H1437; first compound 0.253 µM): 0.243; relative viability (NCI-H1437; first compound 0.8 µM): 0.287; relative viability (NCI-H1437; first compound 2.53 µM): 0.252; relative viability (NCI-H1755; first compound 0.08 µM): 0.621; relative viability (NCI-H1755; first compound 0.253 µM): 0.543; relative viability (NCI-H1755; first compound 0.8 µM): 0.614; relative viability (NCI-H1755; first compound 2.53 µM): 0.563; relative viability (NCI-H1792; first compound 0.08 µM): 0.432; relative viability (NCI-H1792; first compound 0.253 µM): 0.308; relative viability (NCI-H1792; first compound 0.8 µM): 0.303; relative viability (NCI-H1792; first compound 2.53 µM): 0.331; relative viability (NCI-H1915; first compound 0.08 µM): 0.384; relative viability (NCI-H1915; first compound 0.253 µM): 0.258; relative viability (NCI-H1915; first compound 0.8 µM): 0.377; relative viability (NCI-H1915; first compound 2.53 µM): 0.369; relative viability (NCI-H1975; first compound 0.08 µM): 0.409; relative viability (NCI-H1975; first compound 0.253 µM): 0.42; relative viability (NCI-H1975; first compound 0.8 µM): 0.382; relative viability (NCI-H1975; first compound 2.53 µM): 0.37; relative viability (NCI-H2009; first compound 0.08 µM): 0.524; relative viability (NCI-H2009; first compound 0.253 µM): 0.484; relative viability (NCI-H2009; first compound 0.8 µM): 0.421; relative viability (NCI-H2009; first compound 2.53 µM): 0.441; relative viability (NCI-H2228; first compound 0.08 µM): 0.3; relative viability (NCI-H2228; first compound 0.253 µM): 0.328; relative viability (NCI-H2228; first compound 0.8 µM): 0.296; relative viability (NCI-H2228; first compound 2.53 µM): 0.252; relative viability (NCI-H23; first compound 0.08 µM): 0.892; relative viability (NCI-H23; first compound 0.253 µM): 0.722; relative viability (NCI-H23; first compound 0.8 µM): 0.613; relative viability (NCI-H23; first compound 2.53 µM): 0.806; relative viability (NCI-H460; first compound 0.08 µM): 0.526; relative viability (NCI-H460; first compound 0.253 µM): 0.408; relative viability (NCI-H460; first compound 0.8 µM): 0.53; relative viability (NCI-H460; first compound 2.53 µM): 0.502; relative viability (NCI-H727; first compound 0.08 µM): 0.732; relative viability (NCI-H727; first compound 0.253 µM): 0.353; relative viability (NCI-H727; first compound 0.8 µM): 0.635; relative viability (NCI-H727; first compound 2.53 µM): 0.542; relative viability (SK-LU-1; first compound 0.08 µM): 0.548; relative viability (SK-LU-1; first compound 0.253 µM): 0.513; relative viability (SK-LU-1; first compound 0.8 µM): 0.447; relative viability (SK-LU-1; first compound 2.53 µM): 0.556; relative viability (SW 1573; first compound 0.08 µM): 0.483; relative viability (SW 1573; first compound 0.253 µM): 0.398; relative viability (SW 1573; first compound 0.8 µM): 0.369; relative viability (SW 1573; first compound 2.53 µM): 0.37
